Values after ≈ are worked out from the molar mass of the structure shown. Marks after values point to notes of the source that are not given here. Blank lines part the entries; values can stand above or below the compound they belong to.
Experiments:
[1] = Solubility of tolvaptan in Britton-Robinson buffer and purified water; type: physicochemical; settings: thermodynamic from solid, shaken 4 hours
Procedure: Tolvaptan was added in excess to Britton-Robinson buffer (pH 2, pH 7, or pH 12) or purified water, and then shaken at 25° C.±1° C. for 4 hours. Each solution was filtered through a filter, and then, using HPLC, the solubility of tolvaptan was quantified by absolute calibration.

[2] = Solubility of compound (1b) in buffer solution (room temperature); type: physicochemical; settings: for Solubility of compound (1b): crystals could not be added in excess; for solubility thermodynamic at 16 days: thermodynamic from solid, shaken 16 days
[3] = Solubility of salt of compound (1) in water at 37° C.; type: physicochemical; settings: thermodynamic from solid, shaking at 37° C. for 30 minutes
Procedure: A suitable amount of test compound is added to a test tube, and 2.5 ml of water is added thereto. After shaking at 37° C. for 30 minutes, the mixture is filtered through a 0.45-μm membrane filter, and 0.5 ml of the filtrate is accurately weighed. Mobile phase is added thereto to make exactly 50 ml, preparing a test solution (dilution ratio: 100-fold). Approximately 5 mg of free-form authentic sample is accurately weighed, and acetonitrile is added thereto to make exactly 50 ml. A 2 ml of this liquid is accurately weighed, and mobile phase is added thereto to make exactly 20 ml, preparing a standard solution (equivalent to 10 μg/ml). By liquid chromatography under the following conditions, 20 μl of both the test solution and standard solution are tested to obtain the peak areas At and As of the test solution and standard solution. Concentration(μg/ml)=Ws/5×10×At/As×100=Ws×At/As×200 Ws: weighed amount of authentic sample (mg) Test Conditions • Detection: ultraviolet absorption photometer • (measurement wavelength: 254 nm) • Column: TOSOH TSKgel ODS-80Ts (0.46 cm×15 cm) • Column temperature: constant temperature of approximately 40° C. • Mobile phase: water/acetonitrile/trifluoroacetic acid=500/500/1 • Flow rate: 1 ml/min

[4] = Serum concentration of tolvaptan in female rats after tail-vein administration of a compound (1b) solution; type: in vivo; settings: dose producing 1 mg of tolvaptan per kg of body weight
Procedure: A solution of compound (1b) (equivalent to 1 mg of tolvaptan per ml of solution) was prepared. [table] A 79 mg quantity of sodium dihydrogenphosphate•dihydrate and 5 g of mannitol were dissolved in about 90 ml of water for injection. A sodium hydroxide solution was added thereto, and a solution of pH 7 was prepared. Compound (1b) equivalent to 100 mg of tolvaptan was dissolved in this solution. A sodium hydroxide solution was added thereto, and the pH was adjusted to 7. […] This solution was rapidly administered to female rats via the tail vein at a dose such that 1 mg of tolvaptan is produced per kg of body weight. From time to time, blood was collected from the jugular vein under light ethyl ether anesthesia, and serum concentration of tolvaptan was determined by high-speed liquid chromatography (HPLC).

Structure (SMILES): Cc1ccccc1C(=O)Nc1ccc(C(=O)N2CCCC(OP(=O)([O-])O)c3cc(Cl)ccc32)c(C)c1.[Na+] (stereo not shown) [Example 8]
solubility at 30 min [3]: > 1000 µg/mL

Structure (SMILES): Cc1ccccc1C(=O)Nc1ccc(C(=O)N2CCCC(OP(=O)([O-])O)c3cc(Cl)ccc32)c(C)c1.[K+] (stereo not shown) [Example 11]
solubility at 30 min [3]: > 1000 µg/mL

Structure (SMILES): COP(=O)(NCCO)OC1CCCN(C(=O)c2ccc(NC(=O)c3ccccc3C)cc2C)c2ccc(Cl)cc21 (stereo not shown) [Example 20]
solubility at 30 min [3]: > 1000 µg/mL

Further lines, results first:

solubility thermodynamic at 4 h ([1]; aqueous buffer, Britton-Robinson buffer pH 2, 25° C.±1° C.): 0.2 µg/mL (≈ 0.000445 mM)
solubility thermodynamic at 4 h ([1]; aqueous buffer, Britton-Robinson buffer pH 7, 25° C.±1° C.): 0.3 µg/mL (≈ 0.000668 mM)
solubility thermodynamic at 4 h ([1]; aqueous buffer, Britton-Robinson buffer pH 12, 25° C.±1° C.): 0.2 µg/mL (≈ 0.000445 mM)
solubility thermodynamic at 4 h ([1]; purified water, 25° C.±1° C.): 0.2 µg/mL (≈ 0.000445 mM)
Structure (SMILES): Cc1ccccc1C(=O)Nc1ccc(C(=O)N2CCCC(O)c3cc(Cl)ccc32)c(C)c1 (stereo not shown) [tolvaptan, Tolvaptan]

Solubility of compound (1b) ([2]; Citric acid buffer (100 mM), pH before dissolution 8, pH after dissolution 4.2, room temperature): at least 8.3* w/v %
Solubility of compound (1b) ([2]; Sodium hydrogencarbonate buffer (100 mM), pH before dissolution 8, pH after dissolution 3.1, room temperature): at least 7.1* w/v %
Solubility of compound (1b) ([2]; Sodium phosphate buffer (100 mM), pH before dissolution 8, pH after dissolution 3.3, room temperature): at least 7.1* w/v %
Solubility of compound (1b) ([2]; Sodium phosphate buffer (100 mM), pH before dissolution 9, pH after dissolution 3.3, room temperature): at least 7.4* w/v %
Solubility of compound (1b) ([2]; Sodium phosphate buffer (100 mM), pH before dissolution 10, pH after dissolution 3.4, room temperature): at least 6.5* w/v %
Solubility of compound (1b) ([2]; Tris buffer (100 mM), pH before dissolution 9, pH after dissolution 3.4, room temperature): at least 6.3* w/v %
solubility thermodynamic at 16 days ([2]; Tris/HCl buffer, pH 8, aqueous buffer, Tris buffer (100 mM), pH before dissolution 8, pH after dissolution 2.9, room temperature): 7400 µg/mL (≈ 14 mM)
solubility thermodynamic at 16 days ([2]; pH 5, aqueous buffer, Sodium phosphate buffer (100 mM), pH before dissolution 5, pH after dissolution 3.0, room temperature): 5800 µg/mL (≈ 11 mM)
solubility thermodynamic at 16 days ([2]; pH 6, aqueous buffer, Sodium phosphate buffer (100 mM), pH before dissolution 6, pH after dissolution 3.0, room temperature): 13100 µg/mL (≈ 24.8 mM)
solubility thermodynamic at 16 days ([2]; pH 7, aqueous buffer, Sodium phosphate buffer (100 mM), pH before dissolution 7, pH after dissolution 3.1, room temperature): 7600 µg/mL (≈ 14.4 mM)
melting point: 150 to 152 °C
solubility at 30 min [3]: > 1000 µg/mL
Time at which tolvaptan was initially detected in serum after intravenous administration ([4]; rapid tail-vein administration of compound (1b) solution): five
Hydrolysis of compound (1b) into tolvaptan in rats ([4]; tail-vein administration): rapidly hydrolyzed into tolvaptan
Structure (SMILES): Cc1ccccc1C(=O)Nc1ccc(C(=O)N2CCCC(OP(=O)(O)O)c3cc(Cl)ccc32)c(C)c1 (stereo not shown) [compound (1b)]

solubility at 30 min [3]: > 1000 µg/mL
Structure (SMILES): Cc1ccccc1C(=O)Nc1ccc(C(=O)N2CCCC(OP(=O)([O-])[O-])c3cc(Cl)ccc32)c(C)c1.[Mg+2] (stereo not shown) [Example 7]

From patent US9809609B2, “Water-soluble benzoazepine compound and its pharmaceutical composition” (OTSUKA PHARMACEUTICAL CO., LTD., priority 2005, dated 2017)
